# Patent US9394264B2 (Receptos, Inc., priority 2009, dated 2016)
# Read-outs that look alike come from different tables or passages of the source.
# Assays:
# Format in all cases: cell-based
# S1P4 = target: T1, S1P4 (Homo sapiens, UniProt O95977); test: Specificity over other S1P receptors: S1P4-bla TANGO U2OS; details: without Forskolin, read-out: S1P4 agonist value (EC50)
# T1 construct: Tango fusion (C); host or cells: U2OS (Tango, bla reporter)
# T1 sequence (O95977 1-384): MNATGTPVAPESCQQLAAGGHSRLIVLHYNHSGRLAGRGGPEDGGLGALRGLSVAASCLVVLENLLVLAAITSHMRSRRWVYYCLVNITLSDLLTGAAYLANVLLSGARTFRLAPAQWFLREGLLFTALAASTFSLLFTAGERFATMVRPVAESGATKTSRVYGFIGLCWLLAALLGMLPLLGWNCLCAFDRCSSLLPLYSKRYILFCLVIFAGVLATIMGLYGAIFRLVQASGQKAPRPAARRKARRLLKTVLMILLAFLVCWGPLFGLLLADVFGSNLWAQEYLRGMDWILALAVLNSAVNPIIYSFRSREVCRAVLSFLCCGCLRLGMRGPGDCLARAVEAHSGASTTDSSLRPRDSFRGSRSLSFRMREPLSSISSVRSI
# Procedure: (§1) Cells were seeded into 384-well black wall/clear bottom plates at 10^4 cells/well/19.5 μl assay media (DMEM-phenol free, 0.5% charcoal/dextran stripped serum, 2 mM glutamine, 0.1 mM NEAA, 1 mM Na-Pyruvate, 25 mM Hepes) and incubated for 18 hrs at 37° C. in 5% CO2. Dose response curves (10-point) were generated in 10 mM Hepes, 0.1% Pluronic F127, in the presence of Forskolin. Cells were treated with 0.5 μl compound in the presence of 2 μM Forskolin for 4 hrs at 37° C. The FRET-based β-lactamase fluorescent substrate (LiveBLAzer™-FRET B/G Loading Kit CC4-AM; Invitrogen) was prepared according to manufacturer's directions, and incubated with cells for 2 hrs at room temperature. Plates were read at Ex:410/Em:458 and Ex:410/Em:522, and the response ratio determined. Data was analyzed by non-linear regression to determine the EC50 for inhibition of Forskolin induced cAMP.
# (§2) To assess compound specificity on other S1P receptors the following cell lines were used: S1P2 CRE-bla CHOK1, S1P3-Gα15 NFAT-bla HEK293T (Invitrogen), S1P4-bla TANGO U2OS (Invitrogen), S1P5-bla TANGO U2OS (Invitrogen). The same assay set up for S1P1 was used but without Forskolin. S1P4 and S1P5 assays were performed in FreeStyle Expression medium (Invitrogen). S1P5 cells were incubated for 48 hrs in prior to treatment with compound.
# S1P2 = target: T2, S1P2 (Homo sapiens, UniProt O95136); test: Specificity over other S1P receptors: S1P2 CRE-bla CHOK1; details: S1P2 CRE-bla CHOK1, without Forskolin; read-out: S1P2 agonist value (EC50)
# T2 construct: expressed in transfected cells; host or cells: CRE-bla CHOK1
# T2 sequence (O95136 whole entry, species assumed): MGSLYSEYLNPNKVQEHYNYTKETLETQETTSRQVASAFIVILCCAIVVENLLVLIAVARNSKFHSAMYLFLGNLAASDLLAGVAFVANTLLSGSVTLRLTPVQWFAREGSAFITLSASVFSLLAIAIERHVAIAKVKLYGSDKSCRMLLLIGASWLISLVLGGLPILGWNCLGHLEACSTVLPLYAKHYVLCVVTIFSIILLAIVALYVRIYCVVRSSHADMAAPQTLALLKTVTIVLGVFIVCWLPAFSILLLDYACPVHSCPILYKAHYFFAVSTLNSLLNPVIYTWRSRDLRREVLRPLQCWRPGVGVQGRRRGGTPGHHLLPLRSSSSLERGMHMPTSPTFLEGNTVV
# Procedure: as §1, §2
# S1P1/EDG1 = S1P1/EDG1 (Homo sapiens, UniProt P21453); test: S1P1 CRE-bla CHOK1 reporter assay (inhibition of Forskolin induced cAMP); details: S1P1 CRE-bla CHOK1 cells, 2 μM Forskolin
# Chain of S1P1/EDG1 (P21453 whole entry): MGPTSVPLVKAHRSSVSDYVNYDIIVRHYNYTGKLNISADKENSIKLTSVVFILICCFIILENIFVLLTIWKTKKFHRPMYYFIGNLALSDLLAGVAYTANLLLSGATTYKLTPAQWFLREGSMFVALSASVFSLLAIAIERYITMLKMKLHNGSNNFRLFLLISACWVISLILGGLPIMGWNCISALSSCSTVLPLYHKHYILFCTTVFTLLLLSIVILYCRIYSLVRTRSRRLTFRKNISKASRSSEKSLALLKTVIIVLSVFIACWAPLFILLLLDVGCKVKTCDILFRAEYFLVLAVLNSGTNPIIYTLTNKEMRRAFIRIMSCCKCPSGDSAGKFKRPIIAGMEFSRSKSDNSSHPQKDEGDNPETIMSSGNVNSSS
# From the text: A mammalian expression plasmid containing S1P1/EDG1 cloned into pcDNA3.1 was purchased from Missouri S&T cDNA Resource Centre. The nucleotide and amino acid sequence of human S1P1/EDG1 are published in Hla and Maciag (J Biol Chem, 265(1990), 9308-9313). S1P1/pcDNA3.1 was transfected into the CRE-bla CHO K1 (Invitrogen) cell line, and stable single cell clones were selected using standard techniques. Expression of functional S1P1/EDG1 receptor was confirmed by cell surface FACS with a S1P1 antibody (R&D Systems, clone 218713) and S1P-mediated inhibition of Forskolin induced cAMP.
# as §1
# S1P3 = target: T3, S1P3 (Homo sapiens, UniProt Q99500); test: Specificity over other S1P receptors: S1P3-Gα15 NFAT-bla HEK293T; details: without Forskolin, read-out: S1P3 agonist value (EC50)
# T3 construct: host or cells: NFAT-bla HEK293T
# T3 sequence (Q99500 whole entry): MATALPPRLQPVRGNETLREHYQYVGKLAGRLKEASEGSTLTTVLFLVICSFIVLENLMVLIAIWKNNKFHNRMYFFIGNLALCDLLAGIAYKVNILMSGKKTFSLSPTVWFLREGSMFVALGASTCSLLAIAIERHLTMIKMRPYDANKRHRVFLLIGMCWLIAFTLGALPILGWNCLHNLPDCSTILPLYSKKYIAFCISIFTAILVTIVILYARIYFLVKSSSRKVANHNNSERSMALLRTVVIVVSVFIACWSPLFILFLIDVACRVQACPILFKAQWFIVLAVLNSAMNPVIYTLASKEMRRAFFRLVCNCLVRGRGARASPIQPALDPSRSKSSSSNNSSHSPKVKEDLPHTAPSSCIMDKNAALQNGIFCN
# Procedure: as §1, §2
# S1P5 = target: T4, S1P5 (Homo sapiens, UniProt Q9H228); test: Specificity over other S1P receptors: S1P5-bla TANGO U2OS; details: without Forskolin, read-out: S1P5 agonist value (EC50)
# T4 construct: Tango fusion (C); host or cells: U2OS (Tango, bla reporter)
# T4 sequence (Q9H228 whole entry, the tested form may be a part): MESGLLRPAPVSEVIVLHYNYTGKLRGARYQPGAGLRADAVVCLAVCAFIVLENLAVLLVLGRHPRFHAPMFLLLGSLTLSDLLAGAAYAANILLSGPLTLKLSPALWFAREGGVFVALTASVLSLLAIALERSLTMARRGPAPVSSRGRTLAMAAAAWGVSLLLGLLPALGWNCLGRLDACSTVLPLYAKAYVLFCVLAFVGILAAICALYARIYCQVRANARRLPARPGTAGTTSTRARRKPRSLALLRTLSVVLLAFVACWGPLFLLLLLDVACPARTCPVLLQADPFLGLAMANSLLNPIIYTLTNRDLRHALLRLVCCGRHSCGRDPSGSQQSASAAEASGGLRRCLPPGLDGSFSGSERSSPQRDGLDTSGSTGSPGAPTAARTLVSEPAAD
# Procedure: as §1, §2
# [1] = read-out: S1P1 agonist value (EC50)
# [2] = agonist activity range, read-out: S1P1 ACTIVITY
SMILES,EC50 (S1P4) [nM],EC50 (S1P2) [nM],EC50 (S1P1/EDG1; [1]) [nM],EC50 (S1P1/EDG1; [2]) [nM],EC50 (S1P3) [nM],EC50 (S1P5) [nM]
CC(C)Oc1ccc(-c2nc(-c3cccc4c3CCC[C@H]4NC(=O)N3CC[C@H](O)C3)no2)cc1C#N [Compound 13],> 10000,> 10000,0.1,0.05 to 0.5,> 10000,77
"CC(C)Oc1ccc(-c2nc(-c3cccc4c3CCC[C@@H]4NS(C)(=O)=O)no2)cc1C#N [Compound 29, (S)-N-(5-(5-(3-cyano-4-isopropoxyphenyl)-1,2,4-oxadiazol-3-yl)-1,2,3,4-tetrahydronaphthalen-1-yl)methanesulfonamide]",> 10000,> 10000,0.065,0.05 to 0.5,> 10000,37.8
"CC(C)Oc1ccc(-c2nc(-c3cccc4c3CCC[C@H]4NS(=O)(=O)CCO)no2)cc1C#N [Compound 37, (R)-N-(5-(5-(3-cyano-4-isopropoxyphenyl)-1,2,4-oxadiazol-3-yl)-1,2,3,4-tetrahydronaphthalen-1-yl)-2-hydroxyethanesulfonamide]",879,1440,0.024,< 0.05,> 10000,3.5
"CC(C)Oc1ccc(-c2nc(-c3cccc4c3CCC[C@@H]4NCCS(C)(=O)=O)no2)cc1C#N [Compound 49, (S)-2-isopropoxy-5-(3-(5-((42-(methylsulfonyl)ethyl)amino)-5,6,7,8-tetrahydronaphthalen-1-yl)-1,2,4-oxadiazol-5-yl)benzonitrile]",> 10000,> 10000,0.104,0.05 to 0.5,> 10000,94.6
